Reference: patent US20260184663A1, “INDENE COMPOUNDS, PHARMACEUTICAL COMPOSITIONS THEREOF, AND THEIR THERAPEUTIC APPLICATIONS” (NucMito Pharmaceuticals co. Ltd., priority 2022, published 2026)
Read-outs that look alike come from different tables or passages of the source.

What was measured:
Type in all cases: cell-based
[1] = system: alpha-smooth muscle actin (α-SMA); assay: Inhibition of TGF-β induced expression of alpha-smooth muscle actin (α-SMA) in CFSC cells (western blot); settings: compound at 10 μM, TGF-β (10 ng/mL), 24 hours, band intensity vs TGF-β only
Protocol: The ability of a compound to inhabit the TGF-β induced expression of alpha-smooth muscle actin (α-SMA) was evaluated in CCl4-treated fat storing (CFSC) cells. α-SMA is considered as a reliable marker of hepatic stellate cell activation and a key biomarker for liver fibrosis.
CFSC cells maintained in a DMEM medium supplemented with 10% fetal bovine serum were seeded to 12-well culture dishes and grown to a confluence of 60-70% the next day. Culture was changed to a serum-free DMEM medium, and the cells were treated with a compound at 10 μM in the presence of TGF-β (10 ng/mL). The cells were incubated for another 24 hours. All culture was maintained at 37° C. in 5% carbon dioxide.
An NP-40 lysate solution (50 mM Tris (pH 7.4), 150 mM NaCl, 1% NP-40) with EDTA free cocktail added was used to lyse the cells on ice for 30 min. The lysate was collected and centrifuged at 4° C. for 10 min at 12,000 rpm. The pellet was discarded and the supernatant was transferred to a new tube. Cell lysates were loaded with 5× loading buffer and boiled for 10 min, resolved by 10% SDS-polyacrylamide gel electrophoresis (SDS-PAGE), and transferred to PVDF membrane. The membrane was blocked with 5% skim milk in Tris-buffered saline and TWEEN® 20 (TBST; 10 mM Tris-HCl (pH 8.0), 150 mM NaCl, 0.1% TWEEN® 20) for 1 h at room temperature and then incubated with α-SMA and β-actin antibodies overnight at 4° C. After washing twice with TBST, the membrane was probed with a horseradish […] anti-immunoglobulin (1:5000 dilution) for 1 h at room temperature. After two subsequent rinses in TBST, immunoreactive products were reacted with ECL and visualized by a UVP CHEMSTUDIO™ imaging system. The western blotting bands are quantitated using an ImageJ software. The percentage of inhibition was obtained by calculating the percentage decrease in the band intensity compared to the one treated with TGF-β only.
The results are summarized in Table 1, where A represents a value no less of 80% inhibition, B represents a value less than […] but no less than […], C represents a value less than 50% but no less than 30% inhibition, and D represents a value less than 30% inhibition with a compound at 10 μM.

[2] = system: MDA-MB-231 (breast cancer); assay: Antiproliferative activity (CCK-8 cell viability), MDA-MB-231; settings: Homo sapiens, 72 h, read-out: Antiproliferative activity in cancerous cells, MDA-MB-231 (inhibition of cell growth); for inhibition at 3.3 µM: Compound concentration: 3.3 μM; for inhibition at 10 µM: Compound concentration: 10 μM; for inhibition at 30 µM: Compound concentration: 30 μM
Outline: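 Growth inhibition of human MDA-MB-231 breast cancer cells was assessed with a Cell Counting Kit-8. Cells cultured in DMEM plus 10% FBS were seeded at 2,000-5,000 cells/well, treated after attachment, and kept 72 h at 37° C. CCK-8 solution (10 μL) was added for 4 h, and absorbance at 450 nm was compared with DMSO-treated controls.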

HepG2 (liver cancer) = assay: Antiproliferative activity (CCK-8 cell viability), HepG2; settings: Homo sapiens, 72 h; for inhibition at 3.3 µM: Compound concentration: 3.3 μM; for inhibition at 10 µM: Compound concentration: 10 μM; for inhibition at 30 µM: Compound concentration: 30 μM
Outline: (§1)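 Growth inhibition graded in bands from percent viability against DMSO vehicle, read as CCK-8 absorbance at 450 nm. Compound tested at 3.3, 10 or 30 μM for 72 h, 37 °C; media contained 10% FBS: DMEM for HepG2/SW480, MEM for HeLa, F-12K for A549.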

SW480 (colon cancer) = assay: Antiproliferative activity (CCK-8 cell viability), SW480; settings: Homo sapiens, 72 h, read-out: Antiproliferative activity in cancerous cells, SW480 (inhibition of cell growth); for inhibition at 3.3 µM: Compound concentration: 3.3 μM; for inhibition at 10 µM: Compound concentration: 10 μM; for inhibition at 30 µM: Compound concentration: 30 μM
Outline: as §1

[3] = system: B16F10 (malignant melanoma); assay: Antiproliferative activity (CCK-8 cell viability), B16F10; settings: Mus musculus, 72 h, read-out: Antiproliferative activity in cancerous cells, B16F10 (inhibition of cell growth); for inhibition at 3.3 µM: B16-F10, Compound concentration: 3.3 μM; for inhibition at 10 µM: B16-F10, Compound concentration: 10 μM; for inhibition at 30 µM: B16-F10, Compound concentration: 30 μM
Outline: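 Cell growth inhibition was measured in B16F10 malignant melanoma cells with a Cell Counting Kit-8 viability assay. Cells were maintained in DMEM plus 10% fetal bovine serum, seeded at 2,000-5,000 cells/well in 96-well plates, and treated for 72 h at 37° C. Viability was expressed relative to DMSO-treated vehicle control wells.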

[4] = system: A431 (epidermoid carcinoma); assay: Antiproliferative activity (CCK-8 cell viability), A431; settings: Homo sapiens, 72 h, read-out: Antiproliferative activity in cancerous cells, A431 (inhibition of cell growth); for inhibition at 3.3 µM: A-431, Compound concentration: 3.3 μM; for inhibition at 10 µM: A-431, Compound concentration: 10 μM; for inhibition at 30 µM: A-431, Compound concentration: 30 μM
Outline: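 This growth inhibition assay used A431 cells maintained in Dulbecco's modified Eagle's medium plus 10% fetal bovine serum. Cells were seeded in 96-well plates, treated with compound for 72 h at 37° C., and then given 10 μL CCK-8 solution. After a further 4 h, absorbance was read at 450 nm.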

[5] = system: A549 (lung adenocarcinoma); assay: Antiproliferative activity (CCK-8 cell viability), A549; settings: Homo sapiens, 72 h, read-out: Antiproliferative activity in cancerous cells, A549 (inhibition of cell growth); for inhibition at 3.3 µM: Compound concentration: 3.3 μM; for inhibition at 10 µM: Compound concentration: 10 μM; for inhibition at 30 µM: Compound concentration: 30 μM
Outline: as §1

HeLa (cervical cancer) = assay: Antiproliferative activity (CCK-8 cell viability), HeLa; settings: Homo sapiens, 72 h, read-out: Antiproliferative activity in cancerous cells, HELA (inhibition of cell growth); for inhibition at 3.3 µM: Compound concentration: 3.3 μM; for inhibition at 10 µM: Compound concentration: 10 μM; for inhibition at 30 µM: Compound concentration: 30 μM
Outline: as §1

[6] = read-out: Antiproliferative activity in cancerous cells, HepG2 (inhibition of cell growth)

| Structure (SMILES) | inhibition at 10 µM [1] [%] | inhibition at 3.3 µM [2] [%] | inhibition at 10 µM [2] [%] | inhibition at 3.3 µM (HepG2 (liver cancer); [6]) [%] | inhibition at 10 µM (HepG2 (liver cancer); [6]) [%] | inhibition at 3.3 µM (SW480 (colon cancer)) [%] | inhibition at 10 µM (SW480 (colon cancer)) [%] | inhibition at 3.3 µM [3] [%] | inhibition at 10 µM [3] [%] | inhibition at 3.3 µM [4] [%] | inhibition at 10 µM [4] [%] | inhibition at 3.3 µM [5] [%] | inhibition at 10 µM [5] [%] | inhibition at 3.3 µM (HeLa (cervical cancer)) [%] | inhibition at 10 µM (HeLa (cervical cancer)) [%] | inhibition at 30 µM [2] [%] | inhibition at 30 µM (HepG2 (liver cancer); [6]) [%] | inhibition at 30 µM (SW480 (colon cancer)) [%] | inhibition at 30 µM [3] [%] | inhibition at 30 µM [4] [%] | also measured |
| --- | --- | --- | --- | --- | --- | --- | --- | --- | --- | --- | --- | --- | --- | --- | --- | --- | --- | --- | --- | --- | --- |
| O=C(O)CC1=C(Cc2ccc(F)cc2)/C(=C/c2ccc(Oc3ccc(F)cc3)cc2)c2ccc(F)cc21 [C14, (Z)-2-(5-Fluoro-2-(4-fluorobenzyl)-1-(4-(4-fluorophenoxy)benzylidene)-1H-inden-3-yl)acetic acid] | > 80 | ≥ 50 | ≥ 50 | ≥ 50 | ≥ 50 | < 30 | ≥ 50 | ≥ 50 | ≥ 50 | ≥ 50 | ≥ 50 | < 30 | ≥ 50 | ≥ 50 | ≥ 50 | – | – | – | – | – | – |
| CC1=C(CC(=O)O)c2cc(F)cc(F)c2/C1=C/c1cccc(COc2ccccc2)c1 [E7, (E)-2-(5,7-Difluoro-2-methyl-1-(3-(phenoxymethyl)benzylidene)-1H-inden-3-yl)-acetic acid] | > 80 | < 30 | ≥ 50 | 30 to 50 | ≥ 50 | ≥ 50 | ≥ 50 | < 30 | < 30 | 30 to 50 | ≥ 50 | ≥ 50 | ≥ 50 | ≥ 50 | ≥ 50 | ≥ 50 | ≥ 50 | ≥ 50 | ≥ 50 | ≥ 50 | inhibition at 30 µM [5]: ≥ 50%; inhibition at 30 µM (HeLa (cervical cancer)): ≥ 50% |
| COc1ccc2c(c1)C(CC(=O)O)=C(C)/C2=C/c1cccc(COc2ccc(F)cc2)c1 [B24, (Z)-2-(1-(3-((4-Fluorophenoxy)methyl)benzylidene)-5-methoxy-2-methyl-1H-inden-3-yl)acetic acid] | > 80 | 30 to 50 | ≥ 50 | < 30 | < 30 | < 30 | < 30 | < 30 | ≥ 50 | < 30 | < 30 | 30 to 50 | ≥ 50 | < 30 | < 30 | – | – | – | – | – | inhibition at 30 µM (HepG2 (liver cancer); read-out: Antiproliferative activity in cancerous cells, HepG2): 30 to 50% |
| CC1=C(CC(=O)O)c2cc(F)ccc2/C1=C/c1ccc(F)cc1OCc1ccccc1 [E5, (E)-2-(1-(2-(Benzyloxy)-4-fluorobenzylidene)-5-fluoro-2-methyl-1H-inden-3-yl)-acetic acid] | > 80 | 30 to 50 | 30 to 50 | 30 to 50 | ≥ 50 | 30 to 50 | 30 to 50 | ≥ 50 | ≥ 50 | < 30 | 30 to 50 | < 30 | ≥ 50 | < 30 | ≥ 50 | ≥ 50 | ≥ 50 | ≥ 50 | ≥ 50 | ≥ 50 | inhibition at 30 µM [5]: ≥ 50%; inhibition at 30 µM (HeLa (cervical cancer)): ≥ 50% |
| CC1=C(Cc2noc(=O)[nH]2)c2cc(F)ccc2/C1=C\c1ccc(Oc2ccc(F)cc2)cc1 [C26, (Z)-3-((5-Fluoro-1-(4-(4-fluorophenoxy)benzylidene)-2-methyl-1H-inden-3-yl)-methyl)-1,2,4-oxadiazol-5(4H)-one] | > 80 | ≥ 50 | ≥ 50 | < 30 | ≥ 50 | < 30 | ≥ 50 | < 30 | ≥ 50 | < 30 | ≥ 50 | 30 to 50 | ≥ 50 | < 30 | ≥ 50 | – | – | – | – | – | – |
| COc1ccc(/C=C2/C(Cc3ccc(Oc4ccc(F)cc4)cc3)=C(CC(=O)O)c3cc(F)ccc32)cc1 [A110, (Z)-2-(5-Fluoro-2-(4-(4-fluorophenoxy)benzyl)-1-(4-methoxybenzylidene)-1H-inden-3-yl)acetic acid] | > 80 | ≥ 50 | ≥ 50 | < 30 | < 30 | < 30 | ≥ 50 | < 30 | ≥ 50 | < 30 | ≥ 50 | < 30 | ≥ 50 | < 30 | ≥ 50 | – | – | – | – | – | – |
